Laboratory results: article PMC9273165, “Metal-free domino amination-Knoevenagel condensation approach to access new coumarins as potent nanomolar inhibitors of VEGFR-2 and EGFR” (Green chemistry letters and reviews, 2021)
Values joined by “and” are separate entries in the source; they are usually repeats but may differ in a detail not shown here. Identical values can stand only once. Like-named read-outs stand apart in the source and are kept apart here. Starred links: 1 amine or outer side, 2 acyl side, 3 side chain; linkers in the order of their positions; H or OH if unused. Positions of bridges follow the written chain, without caps; N, C: chain ends. Non-standard residues stand in square brackets, D forms with d. Residues, ends and D or L forms follow the SMILES beside them. Chains are numbered I, II in the order given. Actinocin(9to1) = Cc1c2oc3c(C)ccc(C(=O)[*:1])c3nc-2c(C(=O)[*:2])c(N)c1=O; NMeV = CN[C@H](C(=O)O)C(C)C; Sar = CNCC(=O)O

How the values were obtained:
[1] = tested on: A549 (non-small cell lung) human cancer cell line; assay: resazurin-based cytotoxicity assay, A549; assay type: cell-based; conditions: for IC50: A549 (non-small cell lung), 72 h incubation, mean ± SD of triplicate wells
Description: (§1) (Table 2, Figure 3). […] The remaining molecules pretended with low cytotoxic effect. Grounded on these outcomes, we concluded that the 4-AMP and morpholine moieties would be the optimal cyclic secondary amines in this study.

KB-3-1 cell line = assay: resazurin-based cytotoxicity assay, KB-3-1
Description: Anti-cervical cancer activity of all the synthesized compounds was evaluated for their in vitro cytotoxicity toward KB-3-1 cell line by resazurin-based assay [49] using (+)-griseofulvin as a positive control.
Anti-cervical cancer activity of all the synthesized compounds were evaluated for the in vitro cytotoxicity toward KB-3-1 cell line (was obtained from the American Type Culture Collection, ATCC, Rockville, MD, USA) by resazurin-based assay [49] using (+)-griseofulvin as a positive control.

[2] = tested on: PC3 (prostate) human cancer cell line; assay: resazurin-based cytotoxicity assay, PC3; assay type: cell-based; conditions: for IC50: PC3 (prostate), 72 h incubation, mean ± SD of triplicate wells
Description: as §1

EGFR kinase = biological target: T1, EGFR kinase (Homo sapiens, UniProt P00533); assay: EGFR Kinase Assay Kit, luminescence; assay type: biochemical; conditions: for EGFR Fold to erlotinib: IC50 relative to the standard erlotinib; for IC50: kinase assay kit, luminescence
T1 construct: purchased 40321
T1 sequence (P00533 25-1210): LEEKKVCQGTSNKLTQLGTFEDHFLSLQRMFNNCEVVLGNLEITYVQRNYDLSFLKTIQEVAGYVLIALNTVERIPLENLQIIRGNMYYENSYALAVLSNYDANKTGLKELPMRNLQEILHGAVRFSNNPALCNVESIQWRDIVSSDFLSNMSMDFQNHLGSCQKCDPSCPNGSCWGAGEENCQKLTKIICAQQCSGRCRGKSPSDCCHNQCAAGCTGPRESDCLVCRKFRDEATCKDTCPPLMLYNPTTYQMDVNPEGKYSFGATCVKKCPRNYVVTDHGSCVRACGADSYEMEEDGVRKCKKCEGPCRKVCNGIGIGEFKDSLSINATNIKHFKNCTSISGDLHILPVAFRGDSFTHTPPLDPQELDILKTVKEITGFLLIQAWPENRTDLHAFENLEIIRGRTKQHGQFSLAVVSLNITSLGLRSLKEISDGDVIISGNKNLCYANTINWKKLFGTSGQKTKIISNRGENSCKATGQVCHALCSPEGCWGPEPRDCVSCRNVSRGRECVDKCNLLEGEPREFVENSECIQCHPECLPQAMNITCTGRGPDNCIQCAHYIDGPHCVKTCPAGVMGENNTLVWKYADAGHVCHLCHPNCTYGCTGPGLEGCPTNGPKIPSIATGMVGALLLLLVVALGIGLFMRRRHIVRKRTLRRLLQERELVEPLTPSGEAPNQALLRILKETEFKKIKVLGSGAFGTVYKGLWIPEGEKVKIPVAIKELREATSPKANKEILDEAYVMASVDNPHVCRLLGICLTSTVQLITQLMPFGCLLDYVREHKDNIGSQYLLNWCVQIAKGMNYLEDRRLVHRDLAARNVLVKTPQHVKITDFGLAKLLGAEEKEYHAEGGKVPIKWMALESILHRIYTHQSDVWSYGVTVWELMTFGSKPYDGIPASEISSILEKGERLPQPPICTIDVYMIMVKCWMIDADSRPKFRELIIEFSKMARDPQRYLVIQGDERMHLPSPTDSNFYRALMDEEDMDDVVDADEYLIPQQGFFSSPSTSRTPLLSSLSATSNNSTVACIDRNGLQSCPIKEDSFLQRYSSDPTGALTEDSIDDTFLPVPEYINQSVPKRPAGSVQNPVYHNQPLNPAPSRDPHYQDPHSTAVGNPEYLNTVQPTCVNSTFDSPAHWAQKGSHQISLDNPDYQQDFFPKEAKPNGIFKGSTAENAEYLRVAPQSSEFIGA
Description: (§2) Overexpression and/or hyperactivation of VEGFR-2 and EGFR kinases are strongly associated with several malignant cancers such as non-small cell lung carcinoma (NSCLC), breast, ovarian, colon, and prostate cancers. Targeting one or both of them is a promising pathway to explore more anti-angiogenic inhibitors. […] At the end of the experiment, the luminescence was measured by Tecan spark microplate reader. The compounds concentration that inactivate 50% of the measured kinases was separately, calculated using a curve fitting software; Prism, version 6.

VEGFR-2 (KDR) = biological target: T2, VEGFR-2 (KDR) (Homo sapiens, UniProt P35968); assay: VEGFR-2 (KDR) Kinase Assay Kit, luminescence; assay type: biochemical; conditions: for VEGFR-2 Fold to sorafenib: IC50 relative to the standard sorafenib; for IC50: kinase assay kit, luminescence
T2 construct: purchased 40325
T2 sequence (P35968 20-1356): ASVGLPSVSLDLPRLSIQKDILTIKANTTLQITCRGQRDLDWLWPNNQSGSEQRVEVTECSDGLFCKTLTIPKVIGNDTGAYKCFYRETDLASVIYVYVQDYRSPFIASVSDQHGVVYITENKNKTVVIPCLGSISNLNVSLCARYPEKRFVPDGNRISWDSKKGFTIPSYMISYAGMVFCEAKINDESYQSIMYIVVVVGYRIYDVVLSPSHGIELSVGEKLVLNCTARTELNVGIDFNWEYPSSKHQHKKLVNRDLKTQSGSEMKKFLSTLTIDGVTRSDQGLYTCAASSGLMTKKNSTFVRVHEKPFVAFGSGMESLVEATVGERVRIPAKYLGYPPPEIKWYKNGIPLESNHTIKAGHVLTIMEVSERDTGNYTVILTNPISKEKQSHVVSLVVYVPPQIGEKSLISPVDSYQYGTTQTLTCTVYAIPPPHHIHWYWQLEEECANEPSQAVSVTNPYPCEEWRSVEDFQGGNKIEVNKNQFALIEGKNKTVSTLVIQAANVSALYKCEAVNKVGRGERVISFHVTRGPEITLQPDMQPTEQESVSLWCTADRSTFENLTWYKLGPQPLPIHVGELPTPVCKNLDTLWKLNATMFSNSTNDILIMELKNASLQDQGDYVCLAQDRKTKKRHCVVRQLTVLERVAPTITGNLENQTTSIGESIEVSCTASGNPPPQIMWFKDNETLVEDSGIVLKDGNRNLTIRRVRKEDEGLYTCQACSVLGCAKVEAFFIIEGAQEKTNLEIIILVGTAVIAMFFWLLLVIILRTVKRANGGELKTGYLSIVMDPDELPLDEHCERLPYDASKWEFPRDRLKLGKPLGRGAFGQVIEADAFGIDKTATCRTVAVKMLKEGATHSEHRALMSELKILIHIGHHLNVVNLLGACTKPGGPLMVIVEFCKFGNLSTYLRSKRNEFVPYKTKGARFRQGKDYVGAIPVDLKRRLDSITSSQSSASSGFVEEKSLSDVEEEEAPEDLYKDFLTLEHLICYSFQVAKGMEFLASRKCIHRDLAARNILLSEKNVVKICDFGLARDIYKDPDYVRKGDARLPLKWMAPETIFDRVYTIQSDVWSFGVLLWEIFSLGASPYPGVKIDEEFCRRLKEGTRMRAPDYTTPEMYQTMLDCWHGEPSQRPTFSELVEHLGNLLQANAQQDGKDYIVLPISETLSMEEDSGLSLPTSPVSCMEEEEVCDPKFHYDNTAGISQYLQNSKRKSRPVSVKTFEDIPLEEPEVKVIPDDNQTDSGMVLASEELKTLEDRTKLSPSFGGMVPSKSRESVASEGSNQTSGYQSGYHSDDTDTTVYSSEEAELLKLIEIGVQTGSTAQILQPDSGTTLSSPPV
Description: as §2

[3] = Homo sapiens, KB 3-1, read-out: IC50 (μM) KB-3-1
[4] = KB-3-1 (cervix) human cancer cell line, mean ± SD of two independent determinations

Row | SMILES | melting point [°C] | IC50 [1] [µM] | IC50 (KB-3-1 cell line; [3]) [µM] | IC50 (μM) KB-3-1 (KB-3-1 cell line; [4]) | IC50 [2] [µM] | EGFR Fold to erlotinib (EGFR kinase) [fold] | IC50 (EGFR kinase) | VEGFR-2 Fold to sorafenib (VEGFR-2 (KDR)) [fold] | IC50 (VEGFR-2 (KDR)) | viability at 20 µM ([1]; A549, positive control at 20 μM, 72 h, read-out: viable cells) [%] | viability at 20 µM ([2]; PC3, positive control at 20 μM, 72 h, read-out: viable cells) [%] | IC50 (KB-3-1 cell line; read-out: IC50 (μM) KB-3-1, KB-3-1 (cervix) human cancer cell line, mean ± SD of two independent determinations) [µM]
1 | O=c1oc2ccccc2c(NCC2CCNCC2)c1[N+](=O)[O-] [Compound 9e, 4-((Piperidin-4-ylmethyl)amino)-3-nitro-2H-chromen-2-one] | 208 to 210 | > 80 | > 100 | no activity | > 80 | – | – | – | – | – | – | –
2 | O=Cc1c(NCC2CCNCC2)c2ccccc2oc1=O [Compound 5e, 4-((Piperidin-4-ylmethyl)amino)-3-formyl-2H-chromen-2-one] | 208 to 210 | > 80 | > 70 | – | > 80 | 3.6 | 0.096 µM and 0.0963 µM | 2.8 | 0.088 µM and 0.0881 µM | – | – | –
3 | COC(=O)/C(C#N)=C/c1c(N2CCC(O)CC2)c2ccccc2oc1=O [Compound 4c, Methyl (E)-2-cyano-3-(4-(4-hydroxypiperidin-1-yl)-2-oxo-2H-chromen-3-yl)acrylate] | 194 to 196 | > 80 | > 100 | – | > 50 | – | – | – | – | – | – | –
4 | N#CC(C#N)=Cc1c(N2CCC(O)CC2)c2ccccc2oc1=O [Compound 8c, 2-((4-(4-Hydroxypiperidin-1-yl)-2-oxo-2H-chromen-3-yl)methylene)malononitrile] | 294 to 296 | > 80 | > 100 | – | > 80 | – | – | – | – | – | – | –
5 | COc1c(C=O)c(=O)oc2ccccc12 [Compound 5f, 4-Methoxy-3-formyl-2H-chromen-2-one] | 118 to 120 | > 80 | > 100 | no activity | > 80 | – | – | – | – | – | – | –
6 | Cc1c2oc3c(C)ccc(C(=O)N[C@@H]4C(=O)N[C@H](C(C)C)C(=O)N5CCC[C@H]5C(=O)N(C)CC(=O)N(C)[C@@H](C(C)C)C(=O)O[C@@H]4C)c3nc-2c(C(=O)N[C@@H]2C(=O)N[C@H](C(C)C)C(=O)N3CCC[C@H]3C(=O)N(C)CC(=O)N(C)[C@@H](C(C)C)C(=O)O[C@@H]2C)c(N)c1=O [Actinomycin D, reference compound] (I: T[dV]P[Sar][NMeV] / II: T[dV]P[Sar][NMeV]; ester I:1-I:C, II:1-II:C; linker I:N-II:N via Actinocin(9to1)) | – | – | – | – | – | – | – | – | – | 0 | 0 | –
7 | O=c1oc2ccccc2c(N2CCCC2)c1[N+](=O)[O-] [Compound 9a, 4-Pyrrolidino-3-nitro-2H-chromen-2-one] | 204 to 206 | > 80 | > 100 | – | > 80 | – | – | – | – | – | – | –
8 | O=Cc1c(N2CCOCC2)c2ccccc2oc1=O [Compound 5d, 4-Morpholino-3-formyl-2H-chromen-2-one] | 150 to 152 | > 50 | > 100 | – | 31.1 | – | – | – | – | – | – | –
9 | COC(=O)/C(C#N)=C/c1c(N2CCCC2)c2ccccc2oc1=O [Compound 4a, Methyl (E)-2-cyano-3-(2-oxo-4-(pyrrolidin-1-yl)-2H-chromen-3-yl)acrylate] | 230 to 232 | > 80 | > 100 | no activity | > 80 | – | – | – | – | – | – | –
10 | COc1c([N+](=O)[O-])c(=O)oc2ccccc12 [Compound 9f, 4-Methoxy-3-nitro-2H-chromen-2-one] | – | – | > 100 | no activity | – | – | – | – | – | – | – | –
11 | N#CC(C#N)=Cc1c(NCC2CCNCC2)c2ccccc2oc1=O [Compound 8e, 2-((2-Oxo-4-((piperidin-4-ylmethyl)amino)-2H-chromen-3-yl)methylene)malononitrile] | 154 to 156 | > 50 | 21 ± 4.24 | – | > 50 | 1.2 | 0.032 µM and 0.0316 µM | 0.8 | 0.025 µM and 0.0247 µM | – | – | –
12 | COC1=CC(=O)C[C@@H](C)[C@]12Oc1c(Cl)c(OC)cc(OC)c1C2=O [(+)-Griseofulvin, (+)-griseofulvin, reference compound] | – | – | – | – | – | – | – | – | – | – | – | 19 ± 2.83
13 | N#CC(C#N)=C(N)/C(C#N)=C/c1c(N2CCCCC2)c2ccccc2oc1=O [Compound 8b, (Z)-2-amino-4-(2-oxo-4-(piperidin-1-yl)-2H-chromen-3-yl)buta-1,3-diene-1,1,3-tricarbonitrile] | 308 to 310 | > 80 | > 100 | – | > 80 | – | – | – | – | – | – | –
14 | O=c1oc2ccccc2c(N2CCOCC2)c1[N+](=O)[O-] [Compound 9d, 4-Morpholino-3-nitro-2H-chromen-2-one] | 210 to 212 | 19.8 ± 0.56 | > 70 | – | 7.31 ± 0.48 | 6.2 | 0.165 ± 0.008 µM | 0.8 | 0.024 µM and 0.0243 µM | – | – | –
15 | COC(=O)/C(C#N)=C/c1c(OC)c2ccccc2oc1=O [Compound 4f, Methyl (E)-2-cyano-3-(4-methoxy-2-oxo-2H-chromen-3-yl)acrylate] | 148 to 150 | > 80 | > 100 | no activity | 38.9 | – | – | – | – | – | – | –
16 | COC(=O)/C(C#N)=C/c1c(N2CCOCC2)c2ccccc2oc1=O [Compound 4d, Methyl (E)-2-cyano-3-(4-morpholino-2-oxo-2H-chromen-3-yl)acrylate] | 218 to 220 | > 80 | > 100 | – | > 50 | – | – | – | – | – | – | –
17 | COC(=O)/C(C#N)=C/c1c(N2CCCCC2)c2ccccc2oc1=O [Compound 4b, Methyl (E)-2-cyano-3-(2-oxo-4-(piperidin-1-yl)-2H-chromen-3-yl)acrylate] | 192 to 194 | > 80 | > 100 | no activity | > 50 | – | – | – | – | – | – | –
18 | O=Cc1c(N2CCCC2)c2ccccc2oc1=O [Compound 5a, 4-Pyrrolidino-3-formyl-2H-chromen-2-one] | 190 to 192 | > 80 | > 100 | no activity | > 80 | – | – | – | – | – | – | –
19 | N#CC(C#N)=Cc1c(N2CCOCC2)c2ccccc2oc1=O [Compound 8d, 2-((4-Morpholino-2-oxo-2H-chromen-3-yl)methylene)malononitrile] | 196 to 198 | > 80 | > 100 | – | 20.16 ± 0.07 | – | – | – | – | – | – | –
20 | COC(=O)/C(C#N)=C/c1c(NCC2CCNCC2)c2ccccc2oc1=O [Compound 4e, Methyl (E)-2-cyano-3-(2-oxo-4-((piperidin-4-ylmethyl)amino)-2H-chromen-3-yl)acrylate] | 172 to 174 | 12.9 ± 1.51 | 15.5 ± 3.54 | – | 11.28 ± 0.06 | 2.5 | 0.067 µM and 0.0671 µM | 1.2 | 0.037 µM and 0.0368 µM | – | – | –
21 | N#CC(C#N)=C(N)/C(C#N)=C/c1c(N2CCCC2)c2ccccc2oc1=O [Compound 8a, (Z)-2-amino-4-(2-oxo-4-(pyrrolidin-1-yl)-2H-chromen-3-yl)buta-1,3-diene-1,1,3-tricarbonitrile] | > 320 | > 80 | > 100 | – | > 80 | – | – | – | – | – | – | –
